Measurements taken from US5055302A, “Neuropeptide control of ocular growth” (Trustees of the University of Pennsylvania, priority 1990, dated 1991).
Entries after “also recorded” stand apart in the source; their conditions may differ.

Legend:
lid-sutured eyes = assay: Form deprivation myopia induced by eyelid suture in chicks; VIP given daily by subconjunctival injection to the sutured eye, ocular dimensions measured with calipers; type: in vivo, White Leghorn chicks; settings: for Axial length (deprived minus control eye), mean ± S.E.M. / Equatorial diameter (deprived minus control eye), mean ± S.E.M.: subconjunctival
Description: (§1) Form deprivation myopia in day-old White Leghorn chicks was induced by eyelid suture under aseptic conditions and ether anesthesia. One eyelid of the chicks was sutured. […] Translucent vision is permitted through the eyelid. The contralateral unsutured open eye served as the control eye. VIP was administered daily to the deprived, or sutured, eye. Saline was administered to the unsutured eye. All agents were given under ether anesthesia by subconjunctival injection. The chicks were maintained on a 12 hour light/dark cycle. The birds were killed at ages up to 4 weeks by decapitation under deep pentobarbital anesthesia. Axial and equatorial dimensions of unfixed eyes were measured with vernier calipers.
(§2) VIP (porcine VIP, Peninsula Laboratories, Inc. Belmont Calif.) was administered in three (descending) dose levels to lid-sutured eyes of 23 chicks and to one eye of an additional 15 chicks which had both eyes open.

open eyes = assay: Effect of VIP on growth of open eyes (control chicks with both eyes open, one eye treated); type: in vivo, White Leghorn chicks; settings: for Axial length (treated eye minus untreated eye), mean ± S.E.M. / Equatorial diameter (treated eye minus untreated eye), mean ± S.E.M.: open eyes, subconjunctival
Description: as §1, §2

## CC[C@H](C)[C@H](NC(=O)[C@H](CO)NC(=O)[C@H](CC(N)=O)NC(=O)[C@H](CC(C)C)NC(=O)[C@H](Cc1ccc(O)cc1)NC(=O)[C@H](CCCCN)NC(=O)[C@H](CCCCN)NC(=O)[C@@H](NC(=O)[C@H](C)NC(=O)[C@H](CCSC)NC(=O)[C@H](CCC(N)=O)NC(=O)[C@H](CCCCN)NC(=O)[C@H](CCCNC(=N)N)NC(=O)[C@H](CC(C)C)NC(=O)[C@H](CCCNC(=N)N)NC(=O)[C@@H](NC(=O)[C@H](Cc1ccc(O)cc1)NC(=O)[C@H](CC(N)=O)NC(=O)[C@H](CC(=O)O)NC(=O)[C@@H](NC(=O)[C@H](Cc1ccccc1)NC(=O)[C@@H](NC(=O)[C@H](C)NC(=O)[C@H](CC(=O)O)NC(=O)[C@H](CO)NC(=O)[C@@H](N)Cc1c[nH]cn1)C(C)C)[C@@H](C)O)[C@@H](C)O)C(C)C)C(=O)N[C@@H](CC(C)C)C(=O)N[C@@H](CC(N)=O)C(N)=O [VIP, vasoactive intestinal peptide]
lid-sutured eyes; 0.25 μg dose
  Block of axial elongation: ~80%
lid-sutured eyes; (p<0.05)
  Treatment effect on axial length, one way analysis of variance: significant treatment effects
lid-sutured eyes; VIP treatment, all doses
  Treatment effect on equatorial diameters: no significant treatment effects
lid-sutured eyes; daily dose 0.025 μg
  Axial length (deprived minus control eye), mean ± S.E.M.: 0.17 ± 0.10 mm
  Equatorial diameter (deprived minus control eye), mean ± S.E.M.: 0.91 ± 0.05 mm
lid-sutured eyes; daily dose 0.25 μg
  Axial length (deprived minus control eye), mean ± S.E.M.: 0.07 ± 0.07 mm
  Equatorial diameter (deprived minus control eye), mean ± S.E.M.: 0.92 ± 0.04 mm
lid-sutured eyes; daily dose 2.5 μg
  Effective range of the peptide: outside the effective range
  Axial length (deprived minus control eye), mean ± S.E.M.: 0.34 ± 0.15 mm
  Equatorial diameter (deprived minus control eye), mean ± S.E.M.: 0.90 ± 0.10 mm
lid-sutured eyes; dose 0.25 μg (p<0.001)
  Treatment effect on axial length, one way analysis of variance: profound treatment effect; also recorded: significant treatment effects
Open eyes; controls (both eyes open), all three levels of VIP
  Treatment effect on axial or equatorial diameters: no significant treatment effect
Open eyes; daily dose 0.025 μg
  Axial length (treated eye minus untreated eye), mean ± S.E.M.: 0.008 ± 0.10 mm
  Equatorial diameter (treated eye minus untreated eye), mean ± S.E.M.: 0.07 ± 0.04 mm
Open eyes; daily dose 0.25 μg
  Axial length (treated eye minus untreated eye), mean ± S.E.M.: 0.03 ± 0.05 mm
  Equatorial diameter (treated eye minus untreated eye), mean ± S.E.M.: 0.02 ± 0.02 mm
Open eyes; daily dose 2.5 μg
  Axial length (treated eye minus untreated eye), mean ± S.E.M.: 0.13 ± 0.06 mm
  Equatorial diameter (treated eye minus untreated eye), mean ± S.E.M.: -0.01 ± 0.06 mm
